Experiments:
Type in all cases: in vivo
[1] = test system: Triticum aestivum variety “Kanzler”; test: Pre-emergence test, selectivity; conditions: 3 weeks after treatment, rating 0-100 (100=death), Table 4
Protocol: (§1) The pre-emergence tests involve spraying a liquid formulation of the compound onto the soil in which the seeds of the plant species mentioned above has recently been sown.
(§2) The soil used in the tests is a prepared horticultural loam. The formulations used in the tests are prepared from solutions of the test compounds in acetone containing 0.4% by weight of an alkylphenol/ethylene oxide condensate available under the trade mark TRITON X-155.
(§3) These acetone solutions are diluted with water and the resulting formulations applied at dosage levels corresponding to 15 g, 30 g, 60 g, 120 g or 240 g of active material per hectare in a volume equivalent to 900 liters per hectare. In these tests untreated sown soil is used as control. The herbicidal effects of the test compounds are assessed visually three weeks after spraying the soil and are recorded an a 0 to 100 scale. A rating 0 indicates growth as untreated control, a rating 100 indicates death. An increase of 10 unit an the linear scale approximates to a 10% increase in the level of effect. The results of the assessment are set out in Tables 1 to 4.

[2] = test system: Triticum aestivum variety “Monopol”; test: Pre-emergence test, selectivity; conditions: 3 weeks after treatment, rating 0-100 (100=death), Table 4
Protocol: as §1, §2, §3

[3] = test system: PAPRH; test: Pre-emergence test, weed control; conditions: 3 weeks after treatment, rating 0-100 (100=death), Table 3
Protocol: as §1, §2, §3

[4] = test system: VIOAR; test: Pre-emergence test, weed control; conditions: 3 weeks after treatment, rating 0-100 (100=death), Table 3
Protocol: as §1, §2, §3

[5] = test system: wheat; test: Pre-emergence test, tolerance in wheat; conditions: in vivo
Protocol: as §1, §2, §3

[6] = test system: Stellaria media; test: Pre-emergence test, weed control; conditions: 3 weeks after treatment, rating 0-100 (100=death), Table 3
Protocol: as §1, §2
(§4) In these tests untreated sown soil is used as control. The herbicidal effects of the test compounds are assessed visually three weeks after spraying the soil and are recorded an a 0 to 100 scale. A rating 0 indicates growth as untreated control, a rating 100 indicates death. An increase of 10 unit an the linear scale approximates to a 10% increase in the level of effect. The results of the assessment are set out in Tables 1 to 4.

[7] = test system: Lolium perenne; test: Pre-emergence test, weed control; conditions: 3 weeks after treatment, rating 0-100 (100=death), Table 3
Protocol: as §1, §2, §4

[8] = test system: Poa annua; test: Pre-emergence test, weed control; conditions: 3 weeks after treatment, rating 0-100 (100=death), Table 3
Protocol: as §1, §2, §4

[9] = test system: Veronica persica; test: Pre-emergence test, weed control; conditions: 3 weeks after treatment, rating 0-100 (100=death), Table 3
Protocol: as §1, §2, §4

[10] = test system: Setaria viridis; test: Pre-emergence test, weed control; conditions: 3 weeks after treatment, rating 0-100 (100=death), Table 3
Protocol: as §1, §2, §4

[11] = test system: Galium aparine; test: Pre-emergence test, weed control; conditions: 3 weeks after treatment, rating 0-100 (100=death), Table 3
Protocol: as §1, §2, §4

[12] = test system: Matricaria inodora; test: Pre-emergence test, weed control; conditions: 3 weeks after treatment, rating 0-100 (100=death), Table 3
Protocol: as §1, §2, §4

[13] = test system: Apera spica-venti; test: Pre-emergence test, weed control; conditions: 3 weeks after treatment, rating 0-100 (100=death), Table 3
Protocol: as §1, §2, §4

[14] = test system: Alopecurus myosuroides; test: Pre-emergence test, weed control; conditions: 3 weeks after treatment, rating 0-100 (100=death), Table 3
Protocol: as §1, §2, §4

[15] = test system: Lamium purpureum; test: Pre-emergence test, weed control; conditions: 3 weeks after treatment, rating 0-100 (100=death), Table 3
Protocol: as §1, §2, §4

Cc1cnc(-c2ccc(C(F)(F)F)cc2)nc1Oc1ccnc(Cl)c1 [REF-4]
TRZAWK rating (Selectivity) ([1]; 0.030 kg/ha): 10
TRZAWK rating (Selectivity) ([1]; 0.060 kg/ha): 15
TRZAWK rating (Selectivity) ([1]; 0.120 kg/ha): 22
TRZAWK rating (Selectivity) ([1]; 0.240 kg/ha): 22
TRZAWM rating (Selectivity) ([2]; 0.030 kg/ha): 15
TRZAWM rating (Selectivity) ([2]; 0.060 kg/ha): 8
TRZAWM rating (Selectivity) ([2]; 0.120 kg/ha): 22
TRZAWM rating (Selectivity) ([2]; 0.240 kg/ha): 35
PAPRH weed control rating ([3]; 0.030 kg/ha): 100
PAPRH weed control rating ([3]; 0.060 kg/ha): 100
PAPRH weed control rating ([3]; 0.120 kg/ha): 100
PAPRH weed control rating ([3]; 0.240 kg/ha): 100
VIOAR weed control rating ([4]; 0.030 kg/ha): 99
VIOAR weed control rating ([4]; 0.060 kg/ha): 100
VIOAR weed control rating ([4]; 0.120 kg/ha): 100
VIOAR weed control rating ([4]; 0.240 kg/ha): 100
maximum tolerated dose in wheat / dose at which sufficiently selective in wheat [5]: 60 g/ha
STEME weed control rating ([6]; 0.030 kg/ha): 92
STEME weed control rating ([6]; 0.060 kg/ha): 100
STEME weed control rating ([6]; 0.120 kg/ha): 100
STEME weed control rating ([6]; 0.240 kg/ha): 100
LOLPE weed control rating ([7]; 0.030 kg/ha): 98
LOLPE weed control rating ([7]; 0.060 kg/ha): 98
LOLPE weed control rating ([7]; 0.120 kg/ha): 100
LOLPE weed control rating ([7]; 0.240 kg/ha): 100
POAAN weed control rating ([8]; 0.030 kg/ha): 100
POAAN weed control rating ([8]; 0.060 kg/ha): 100
POAAN weed control rating ([8]; 0.120 kg/ha): 100
POAAN weed control rating ([8]; 0.240 kg/ha): 100
VERPE weed control rating ([9]; 0.030 kg/ha): 98
VERPE weed control rating ([9]; 0.060 kg/ha): 100
VERPE weed control rating ([9]; 0.120 kg/ha): 100
VERPE weed control rating ([9]; 0.240 kg/ha): 100
SETVI weed control rating ([10]; 0.030 kg/ha): 65
SETVI weed control rating ([10]; 0.060 kg/ha): 80
SETVI weed control rating ([10]; 0.120 kg/ha): 100
SETVI weed control rating ([10]; 0.240 kg/ha): 100
GALAP weed control rating ([11]; 0.240 kg/ha): 90
MATIN weed control rating ([12]; 0.030 kg/ha): 100
MATIN weed control rating ([12]; 0.060 kg/ha): 100
MATIN weed control rating ([12]; 0.120 kg/ha): 100
MATIN weed control rating ([12]; 0.240 kg/ha): 100
APESV weed control rating ([13]; 0.030 kg/ha): 100
APESV weed control rating ([13]; 0.060 kg/ha): 100
APESV weed control rating ([13]; 0.120 kg/ha): 100
APESV weed control rating ([13]; 0.240 kg/ha): 100
ALOMY weed control rating ([14]; 0.030 kg/ha): 20
ALOMY weed control rating ([14]; 0.060 kg/ha): 92
ALOMY weed control rating ([14]; 0.120 kg/ha): 93
ALOMY weed control rating ([14]; 0.240 kg/ha): 98
LAMPU weed control rating ([15]; 0.030 kg/ha): 97
LAMPU weed control rating ([15]; 0.060 kg/ha): 100
LAMPU weed control rating ([15]; 0.120 kg/ha): 100
LAMPU weed control rating ([15]; 0.240 kg/ha): 100

Cc1nc(-c2ccc(C(F)(F)F)cc2)nc(Oc2ccnc(Cl)c2)c1C [REF-5]
TRZAWK rating (Selectivity) ([1]; 0.120 kg/ha): 1
TRZAWK rating (Selectivity) ([1]; 0.240 kg/ha): 8
TRZAWM rating (Selectivity) ([2]; 0.120 kg/ha): 1
TRZAWM rating (Selectivity) ([2]; 0.240 kg/ha): 8
PAPRH weed control rating ([3]; 0.030 kg/ha): 85
PAPRH weed control rating ([3]; 0.060 kg/ha): 95
PAPRH weed control rating ([3]; 0.120 kg/ha): 100
PAPRH weed control rating ([3]; 0.240 kg/ha): 100
VIOAR weed control rating ([4]; 0.030 kg/ha): 96
VIOAR weed control rating ([4]; 0.060 kg/ha): 97
VIOAR weed control rating ([4]; 0.120 kg/ha): 98
VIOAR weed control rating ([4]; 0.240 kg/ha): 99
maximum tolerated dose in wheat / dose at which sufficiently selective in wheat [5]: 240 g/ha
STEME weed control rating ([6]; 0.030 kg/ha): 10
STEME weed control rating ([6]; 0.060 kg/ha): 25
STEME weed control rating ([6]; 0.120 kg/ha): 35
STEME weed control rating ([6]; 0.240 kg/ha): 70
LOLPE weed control rating ([7]; 0.030 kg/ha): 40
LOLPE weed control rating ([7]; 0.060 kg/ha): 90
LOLPE weed control rating ([7]; 0.120 kg/ha): 98
LOLPE weed control rating ([7]; 0.240 kg/ha): 99
POAAN weed control rating ([8]; 0.030 kg/ha): 92
POAAN weed control rating ([8]; 0.060 kg/ha): 100
POAAN weed control rating ([8]; 0.120 kg/ha): 100
POAAN weed control rating ([8]; 0.240 kg/ha): 100
VERPE weed control rating ([9]; 0.030 kg/ha): 55
VERPE weed control rating ([9]; 0.060 kg/ha): 93
VERPE weed control rating ([9]; 0.120 kg/ha): 95
VERPE weed control rating ([9]; 0.240 kg/ha): 100
SETVI weed control rating ([10]; 0.030 kg/ha): 20
SETVI weed control rating ([10]; 0.060 kg/ha): 50
SETVI weed control rating ([10]; 0.120 kg/ha): 95
SETVI weed control rating ([10]; 0.240 kg/ha): 100
GALAP weed control rating ([11]; 0.030 kg/ha): 2
GALAP weed control rating ([11]; 0.060 kg/ha): 5
GALAP weed control rating ([11]; 0.120 kg/ha): 50
MATIN weed control rating ([12]; 0.030 kg/ha): 85
MATIN weed control rating ([12]; 0.060 kg/ha): 100
MATIN weed control rating ([12]; 0.120 kg/ha): 100
MATIN weed control rating ([12]; 0.240 kg/ha): 100
APESV weed control rating ([13]; 0.030 kg/ha): 100
APESV weed control rating ([13]; 0.060 kg/ha): 100
APESV weed control rating ([13]; 0.120 kg/ha): 100
APESV weed control rating ([13]; 0.240 kg/ha): 100
ALOMY weed control rating ([14]; 0.030 kg/ha): 5
ALOMY weed control rating ([14]; 0.060 kg/ha): 15
ALOMY weed control rating ([14]; 0.120 kg/ha): 30
ALOMY weed control rating ([14]; 0.240 kg/ha): 35
LAMPU weed control rating ([15]; 0.030 kg/ha): 0
LAMPU weed control rating ([15]; 0.060 kg/ha): 20
LAMPU weed control rating ([15]; 0.120 kg/ha): 55
LAMPU weed control rating ([15]; 0.240 kg/ha): 100

Reference: patent US7008905B2, “Method of combating undesired plant growth on cereals” (BASF Aktiengesellschaft, priority 2000, dated 2006)
